Experiment [1] concerns the target T1, Recombinant Human 5′-Nucleotidase (CD73) (Homo sapiens, UniProt P21589).
T1 construct: CHO derived CD73 (Trp27-Lys547), with a C-terminal 6-His tag; 6-His (C); purchased R&D 5795-EN; host or cells: CHO
T1 sequence (P21589 27-547): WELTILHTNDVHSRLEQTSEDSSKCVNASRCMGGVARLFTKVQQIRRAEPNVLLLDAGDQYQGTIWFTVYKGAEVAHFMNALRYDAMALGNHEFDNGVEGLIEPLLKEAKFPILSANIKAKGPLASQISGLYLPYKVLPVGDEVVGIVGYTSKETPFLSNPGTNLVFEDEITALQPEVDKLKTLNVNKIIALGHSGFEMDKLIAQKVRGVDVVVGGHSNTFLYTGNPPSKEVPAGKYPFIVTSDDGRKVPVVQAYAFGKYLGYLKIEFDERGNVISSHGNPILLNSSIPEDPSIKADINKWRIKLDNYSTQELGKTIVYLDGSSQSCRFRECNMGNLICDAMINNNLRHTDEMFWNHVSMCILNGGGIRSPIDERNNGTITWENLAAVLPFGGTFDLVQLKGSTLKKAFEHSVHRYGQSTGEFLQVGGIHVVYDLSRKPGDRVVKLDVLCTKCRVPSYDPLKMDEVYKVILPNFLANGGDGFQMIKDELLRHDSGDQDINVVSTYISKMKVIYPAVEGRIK
Put plainly: CD73 Enzyme Assay. The experiment is classed as biochemical. To be noted: human CD73 0.5 nM, AMP 30 μM, PiColorLock phosphate detection; read-out: Potency (IC50, CD73 enzyme assay). The essentials: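 Human CD73 (CHO-derived Trp27-Lys547, His-tagged; 0.5 nM final) was preincubated with compound for 15 min at 25° C. in Tris pH 7.5 buffer with MgCl2. It then reacted with 30 μM AMP for 20 min at 37° C., and released phosphate was read by malachite green absorbance at 635 nm. IC50 came from four-parameter fits against enzyme and no-enzyme controls.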

Experiment [2] has as its target T2, Cell surface CD73 of U87 MG human glioblastoma cells (Homo sapiens, UniProt P21589).
T2 construct: Cell surface CD73 catalyzes the conversion of adenosine monophosphate (AMP) to adenosine and inorganic phosphate; endogenous in cells; host or cells: U87 MG human glioblastoma cells
T2 sequence (P21589 27-549): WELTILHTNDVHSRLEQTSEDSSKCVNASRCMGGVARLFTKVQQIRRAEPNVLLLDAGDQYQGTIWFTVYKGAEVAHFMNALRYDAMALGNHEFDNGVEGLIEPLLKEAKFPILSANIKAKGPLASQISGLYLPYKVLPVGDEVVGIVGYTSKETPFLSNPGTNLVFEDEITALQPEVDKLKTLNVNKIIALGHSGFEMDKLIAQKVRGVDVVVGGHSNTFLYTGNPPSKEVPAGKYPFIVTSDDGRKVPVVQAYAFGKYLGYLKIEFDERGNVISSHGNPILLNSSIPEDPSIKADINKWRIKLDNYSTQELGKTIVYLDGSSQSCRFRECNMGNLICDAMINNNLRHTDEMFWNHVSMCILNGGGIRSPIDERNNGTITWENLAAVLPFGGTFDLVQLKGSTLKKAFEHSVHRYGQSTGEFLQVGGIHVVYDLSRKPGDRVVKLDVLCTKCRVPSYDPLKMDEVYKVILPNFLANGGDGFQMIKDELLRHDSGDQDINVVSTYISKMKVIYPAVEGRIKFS
The experiment can be described thus: CD73 Cellular Assay. The format is cell-based. The settings on record: 5000 cells per well, 30 μM AMP substrate, read-out: Potency (IC50, CD73 cellular assay). The method, then:
Cell surface CD73 catalyzes the conversion of adenosine monophosphate (AMP) to adenosine and inorganic phosphate. U87 MG human glioblastoma cells express high level of CD73. Cells are treated with compounds in a 96-well assay plate and supernatants are collected into a 384-well detection plate. The concentration of inorganic phosphate (Pi) in the supernatants is determined using the phosphate detection reagent, PiColorLock™ (Innova Bioscience, Cat #303-0125) following the manufacturer's instructions.
Briefly, on the day of the assay, U87 MG cells were harvested and resuspended in assay buffer which consisted of 20 mM HEPES, pH=7.4, 137 mM NaCl, 5.4 mM KCl, 1.3 mM CaCl2, 4.2 mM NaHCO3 and 0.1% glucose. To test the effect of compounds on cellular CD73 enzymatic activity, 500 nL/well of compounds dissolved in DMSO were added to a 96-well TC-treated microplate (Corning #3599). Next, 80 μL/well of U87 MG cells in assay buffer were added to assay plate. After 30 minutes of incubation in an atmosphere of 5% CO2 at 37° C., 20 μL/well of 150 μM AMP (Adenosine 5′-monophosphate monohydrate, Sigma, Cat #01930) in assay buffer was added to assay plate. Final assay conditions consisted of 5000 cells per well in 0.5% DMSO and 30 μM AMP substrate. After 50 minutes of incubation in an atmosphere of 5% CO2 at 37° C., 50 μL/well of supernatant was transferred to the 384-well detection plate (Corning® NBS™ 384 well plates, Cat #3640). Meanwhile “Gold mix” was prepared shortly before use by adding 1/100 volume of accelerator to the PiColorLock™ Gold reagent. 12 μL/well of the “Gold mix” was added to detection plate containing 50 μL/well of supernatant and incubated at 25° C. for 5 minutes. 5 μL/well stabilizer was added to the detection plate and incubated at 25° C. for 30 minutes. The absorbance at 635 nm was measured on a Spark 10M instrument (TECAN). The percent (%) inhibition at each concentration of a compound was calculated relative to the OD value in the Max and Min control wells contained within each assay plate. The Max control wells contained cells and substrate as 0% inhibition, and the Min control wells only contained cells as 100% inhibition. The concentrations and percent inhibition values for a test compound are plotted and the concentration of a the compound required to achieve 50% inhibition (IC50) was determined with a four-parameter logistic dose response equation.

This is an account of results in patent US20220204539A1, “CD73 INHIBITORS” (BioArdis LLC, priority 2019, published 2022).

What is called IC50 is the concentration at which inhibition is half-maximal. With `O=P(O)(O)CP(=O)(O)OC[C@H]1O[C@@H](c2cnc3c(N4CCC(F)(F)C4)nc(Cl)nn23)[C@@H](F)[C@@H]1O` [Compound 75, (((((2R,3R,4S,5S)-5-(2-chloro-4-(3,3-difluoropyrrolidin-1-yl)imidazo[2,1-f][1,2,4]triazin-7-yl)-4-fluoro-3-hydroxytetrahydrofuran-2-yl)methoxy)(hydroxy)phosphoryl)methyl)phosphonic Acid], the values for the IC50 in experiment [1] and in experiment [2] were 10 to 99 nM and 1 to 9.9 nM, respectively.
For `O=P(O)(O)CP(=O)(O)OC[C@H]1O[C@@H](c2cnc3c(NC4CCOCC4)nc(Cl)nn23)[C@H](O)[C@@H]1O` [Compound 47, (((((2R,3S,4R,1S)-5-(2-chloro-4-((tetrahydro-2H-pyran-4-yl)amino)imidazo[2,1-f][1,2,4]triazin-7-yl)-3,4-dihydroxytetrahydrofuran-2-yl)methoxy)(hydroxy)phosphoryl)methyl)phosphonic Acid] the same measures were below 10 nM and 1 to 9.9 nM.
For `O=P(O)(O)CP(=O)(O)OC[C@H]1O[C@@H](c2cnc3c(N4CC5CCCC5C4)nc(Cl)nn23)[C@@H](F)[C@@H]1O` (stereo partly drawn) [Compound 72, (((((2R,3R,4S,5S)-5-(2-chloro-4-(hexahydrocyclopenta[c]pyrrol-2(1H)-yl)imidazo[2,1-f][1,2,4]triazin-7-yl)-4-fluoro-3-hydroxytetrahydrofuran-2-yl)methoxy)(hydroxy)phosphoryl)methyl) phosphonic Acid] the same measures were below 10 nM and 1 to 9.9 nM.
Turning to `O=P(O)(O)CP(=O)(O)OC[C@H]1O[C@@H](c2cnc3c(NC4CC5CCC4C5)nc(Cl)nn23)[C@H](O)[C@@H]1O` (stereo partly drawn) [Compound 50, [({[(2R,3S,4R,5S)-5-(4-{bicyclo[2.2.1]heptan-2-ylamino}-2-chloroimidazo[2,1-f][1,2,4]triazin-7-yl)-3,4-dihydroxyoxolan-2-yl]methoxy}(hydroxy)phosphoryl)methyl]phosphonic acid], the results for the IC50 in experiment [1] and in experiment [2] were below 10 nM and below 1 nM, respectively.
For `O=P(O)(O)CP(=O)(O)OC[C@H]1O[C@@H](c2coc3c(NCc4ccccc4)nc(Cl)nc23)[C@H](O)[C@@H]1O` [Compound 15, [({[(2R,3S,4R,5S)-5-[4-(benzylamino)-2-chlorofuro[3,2-d]pyrimidin-7-yl]-3,4-dihydroxyoxolan-2-yl]methoxy}(hydroxy)phosphoryl)methyl]phosphonic Acid] the same measures were below 10 nM and below 1 nM.
For `O=P(O)(O)CP(=O)(O)OC[C@H]1O[C@@H](c2ccc3c(NCc4ccccc4)ncnn23)[C@H](O)[C@@H]1O` [Compound 16, (((((2R,3S,4R,1S)-5-(4-(benzylamino)pyrrolo[2,1-f][1,2,4]triazin-7-yl)-3,4-dihydroxytetrahydrofuran-2-yl)methoxy)(hydroxy)phosphoryl)methyl)phosphonic acid] the same measures were 10 to 99 nM and 1 to 9.9 nM.
For `O=P(O)(O)CP(=O)(O)OC[C@H]1O[C@@H](c2cnc3c(N4CCC(F)(F)CC4)nc(Cl)nn23)[C@H](O)[C@@H]1O` [Compound 44, (((((2R,3S,4R,1S)-5-(2-chloro-4-(4,4-difluoropiperidin-1-yl)imidazo[2,1-f][1,2,4]triazin-7-yl)-3,4-dihydroxytetrahydrofuran-2-yl)methoxy)(hydroxy)phosphoryl)methyl)phosphonic Acid] the same measures were below 10 nM and below 1 nM.
As for `CN(c1nc(Cl)nn2c([C@@H]3O[C@H](COP(=O)(O)CP(=O)(O)O)[C@@H](O)[C@H]3O)cnc12)[C@H]1CCc2ccccc21` [Compound 30, (((((2R,3S,4R,1S)-5-(2-chloro-4-(((S)-2,3-dihydro-1H-inden-1-yl)(methyl)amino)imidazo[2,1-f][1,2,4]triazin-7-yl)-3,4-dihydroxytetrahydrofuran-2-yl)methoxy)(hydroxy)phosphoryl)methyl)phosphonic Acid], the IC50 in experiment [1] was below 10 nM; in experiment [2], below 1 nM.
In the same order, the values of `C[C@H](Nc1nc(Cl)nn2c([C@@H]3O[C@H](COP(=O)(O)CP(=O)(O)O)[C@@H](O)[C@H]3O)cnc12)c1ccc(Cl)cc1` [Compound 54, (((((2R,3S,4R,1S)-5-(2-chloro-4-(((S)-1-(4-chlorophenyl)ethyl)amino)imidazo[2,1-f][1,2,4]triazin-7-yl)-3,4-dihydroxytetrahydrofuran-2-yl)methoxy)(hydroxy)phosphoryl)methyl)phosphonic Acid] are below 10 nM and below 1 nM.
`C[C@H](Nc1nc(Cl)nn2c([C@@H]3O[C@H](COP(=O)(O)CP(=O)(O)O)[C@@H](O)[C@H]3O)cnc12)c1ccc(F)c(F)c1` [Compound 52, (((((2R,3S,4R,5S)-5-(2-chloro-4-(((S)-1-(3,4-difluorophenyl)ethyl)amino)imidazo[2,1-f][1,2,4]triazin-7-yl)-3,4-dihydroxytetrahydrofuran-2-yl)methoxy)(hydroxy)phosphoryl)methyl) phosphonic acid]: the concentration for half-maximal inhibition (IC50) in experiment [1] was below 10 nM; in experiment [2], below 1 nM.
Consider `O=P(O)(O)CP(=O)(O)OC[C@H]1O[C@@H](c2cnc3c(N4CCCC45CCCC5)nc(Cl)nn23)[C@H](O)[C@@H]1O` [Compound 40, (((((2R,3S,4R,1S)-5-(2-chloro-4-(1-azaspiro[4.4]nonan-1-yl)imidazo[2,1-f][1,2,4]triazin-7-yl)-3,4-dihydroxytetrahydrofuran-2-yl)methoxy)(hydroxy)phosphoryl)methyl)phosphonic Acid], for which the IC50 is below 10 nM in experiment [1] and 1 to 9.9 nM in experiment [2].
In the same order, the values of `COC1CCC(Nc2nc(Cl)nn3c([C@@H]4O[C@H](COP(=O)(O)CP(=O)(O)O)[C@@H](O)[C@H]4O)cnc23)C1` (stereo partly drawn) [Compound 23, (((((2R,3S,4R,1S)-5-(2-chloro-4-((3-methoxycyclopentyl)amino)imidazo[2,1-f][1,2,4]triazin-7-yl)-3,4-dihydroxytetrahydrofuran-2-yl)methoxy)(hydroxy)phosphoryl)methyl)phosphonic acid] are below 10 nM and below 1 nM.
